pIC50: −log10 of the molar value.

As usually defined, the pIC50 is −log10 of the IC50, conventionally taken in molar units. Low values mean a high IC50, high ones a low IC50.

In the assay the test system is Entamoeba histolytica. Briefly: Antiamoebic activity against Entamoeba histolytica HM1:IMSS by microdilution method. The format is functional, organism-based. Background: Dilution methods test growth across graded concentrations, often in twofold steps.
Turning to `CC1CCN(C(=S)N/N=C\c2c[nH]c3ccccc23)CC1`, the pIC50 is 5.08.

In the case of `S=C(N/N=C\c1c[nH]c2ccccc12)N1CCN(c2ccccc2)CC1`, the pIC50 was 5.51.

For `S=C(N/N=C\c1c[nH]c2ccccc12)NC1C2CC3CC(C2)CC1C3` (configuration not stated), the pIC50 was 5.97.

Consider `S=C(N/N=C\c1c[nH]c2ccccc12)N1CCCc2ccccc21`, for which the pIC50 was 5.77.

The compound `S=C(N/N=C\c1c[nH]c2ccccc12)NC1CCCCCCC1` had a pIC50 of 5.22.

Compound `S=C(N/N=C\c1c[nH]c2ccccc12)NC1CCCC1` gave a negative-log IC50 (pIC50) of 4.86.

With `S=C(N/N=C\c1c[nH]c2ccccc12)N1CCCC1`, the pIC50 was 4.83.

Source of the values: ChEMBL document CHEMBL1148004, “Synthesis, characterization and antiamoebic activity of new indole-3-carboxaldehyde thiosemicarbazones and their Pd(II) complexes” (Eur J Med Chem, 2007).
